Source: ChEMBL document CHEMBL1201862, “PubChem BioAssay data set” (2004)
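Briefly, cells in 96-well plates were exposed to five compound concentrations for 48 h, and endpoints were estimated by linear interpolation. Abbreviation: GI50, concentration required for 50% inhibition of growth.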 Active and inactive are the calls of the source. Rule as the data show it: active = GI50 up to about 1.1 µM and inactive = higher.

Assays:
Experiment in all cases: NCI tumour cell line growth inhibition, 48 h
[1] = tested on: ACHN
[2] = tested on: TK-10
[3] = tested on: MDA-MB-435
[4] = tested on: SNB-75
[5] = tested on: HCT-116
[6] = tested on: NCI-H226
[7] = tested on: SF-295
[8] = tested on: SK-MEL-28
[9] = tested on: UO-31
[10] = tested on: OVCAR-8
[11] = tested on: HT-29
[12] = tested on: SF-539
[13] = tested on: SN12C
[14] = tested on: HL-60
[15] = tested on: EKVX
[16] = tested on: A498
[17] = tested on: SNB-19
[18] = tested on: MDA-MB-231
[19] = tested on: PC-3
[20] = tested on: KM12

SMILES | GI50 [1] | GI50 [2] | GI50 [3] | GI50 [4] | GI50 [5] | GI50 [6] | GI50 [7] | GI50 [8] | GI50 [9] | GI50 [10] | GI50 [11] | GI50 [12] | GI50 [13] | GI50 [14] | GI50 [15] | GI50 [16] | GI50 [17] | GI50 [18] | GI50 [19] | GI50 [20]
Cn1c(-c2ccc[se]2)ccc1-c1ccc(C=O)[se]1 | 46.6 µM (inactive) | 0.124 µM (active) | 11.4 µM (inactive) | 23 µM (inactive) | 0.59 µM (active) | 0.865 µM (active) | 12.4 µM (inactive) | 42.1 µM (inactive) | > 76.4 µM (inactive) | 6.98 µM (inactive) | 10.8 µM (inactive) | 3.89 µM (inactive) | 14.9 µM (inactive) | 9.31 µM (inactive) | 48.5 µM (inactive) | 1.17 µM (inactive) | > 100 µM (inactive) | 35.9 µM (inactive) | 56.9 µM (inactive) | > 100 µM (inactive)
CCOC(CNCCC(=O)OC)OCC | > 10 µM (inactive) | > 10 µM (inactive) | > 10 µM (inactive) | > 10 µM (inactive) | > 10 µM (inactive) | > 10 µM (inactive) | > 10 µM (inactive) | > 10 µM (inactive) | > 10 µM (inactive) | > 10 µM (inactive) | > 10 µM (inactive) | > 10 µM (inactive) | > 10 µM (inactive) | > 10 µM (inactive) | > 10 µM (inactive) | > 10 µM (inactive) | > 10 µM (inactive) | > 10 µM (inactive) | > 10 µM (inactive) | > 10 µM (inactive)
COC(=O)CCC12CCC(O1)c1ccccc12 (stereo not given) | > 100 µM (inactive) | > 100 µM (inactive) | > 100 µM (inactive) | > 100 µM (inactive) | > 100 µM (inactive) | > 100 µM (inactive) | > 100 µM (inactive) | > 100 µM (inactive) | > 100 µM (inactive) | > 100 µM (inactive) | > 100 µM (inactive) | > 100 µM (inactive) | > 100 µM (inactive) | > 100 µM (inactive) | > 100 µM (inactive) | > 100 µM (inactive) | > 100 µM (inactive) | > 100 µM (inactive) | > 100 µM (inactive) | > 100 µM (inactive)
CCCCON1C[C@@H](O)C(O)[C@@H](O)C1 (stereo not given in full) | > 100 µM (inactive) | > 100 µM (inactive) | > 100 µM (inactive) | > 100 µM (inactive) | > 100 µM (inactive) | > 100 µM (inactive) | > 100 µM (inactive) | > 100 µM (inactive) | > 100 µM (inactive) | > 100 µM (inactive) | > 100 µM (inactive) | > 100 µM (inactive) | > 100 µM (inactive) | > 100 µM (inactive) | > 100 µM (inactive) | > 100 µM (inactive) | > 100 µM (inactive) | > 100 µM (inactive) | > 100 µM (inactive) | > 100 µM (inactive)
C/C(=N/CC(=O)O)c1ccccc1 | > 100 µM (inactive) | > 100 µM (inactive) | > 100 µM (inactive) | > 100 µM (inactive) | > 100 µM (inactive) | > 100 µM (inactive) | > 100 µM (inactive) | > 100 µM (inactive) | 97.5 µM (inactive) | > 100 µM (inactive) | > 100 µM (inactive) | > 100 µM (inactive) | > 100 µM (inactive) | 35.9 µM (inactive) | > 100 µM (inactive) | > 100 µM (inactive) | > 100 µM (inactive) | > 100 µM (inactive) | > 100 µM (inactive) | > 100 µM (inactive)
CC1(C)C(C(=O)OC(C#N)c2cccc(OCC(=O)OCc3ccccc3)c2)C1(C)C (stereo not given) | > 100 µM (inactive) | > 100 µM (inactive) | > 100 µM (inactive) | 41.5 µM (inactive) | 40.4 µM (inactive) | > 100 µM (inactive) | > 100 µM (inactive) | 63.2 µM (inactive) | > 100 µM (inactive) | 35.2 µM (inactive) | > 100 µM (inactive) | > 100 µM (inactive) | > 100 µM (inactive) | 2.3 µM (inactive) | > 100 µM (inactive) | > 100 µM (inactive) | > 100 µM (inactive) | 66.1 µM (inactive) | > 100 µM (inactive) | > 100 µM (inactive)
CCOC1=C/C(=N\Nc2ccc([N+](=O)[O-])cc2)CCC1 | 12.3 µM (inactive) | 25.5 µM (inactive) | 16.8 µM (inactive) | 26.4 µM (inactive) | 41.7 µM (inactive) | 41.9 µM (inactive) | 13.1 µM (inactive) | 23.2 µM (inactive) | 12.1 µM (inactive) | 16.4 µM (inactive) | 14.6 µM (inactive) | 48.1 µM (inactive) | 29.9 µM (inactive) | 13.6 µM (inactive) | 87.9 µM (inactive) | 26.3 µM (inactive) | 34.7 µM (inactive) | 27.9 µM (inactive) | 53.6 µM (inactive) | 14.3 µM (inactive)
C/C(=C\CNc1ncnc2[nH]c(Cl)nc12)CO | > 100 µM (inactive) | > 100 µM (inactive) | > 100 µM (inactive) | > 100 µM (inactive) | > 100 µM (inactive) | > 100 µM (inactive) | > 100 µM (inactive) | > 100 µM (inactive) | > 100 µM (inactive) | > 100 µM (inactive) | > 100 µM (inactive) | > 100 µM (inactive) | > 100 µM (inactive) | > 100 µM (inactive) | > 100 µM (inactive) | > 100 µM (inactive) | > 100 µM (inactive) | > 100 µM (inactive) | > 100 µM (inactive) | > 100 µM (inactive)
O=C(CC(c1ccccc1)c1c(O)c2ccccc2oc1=O)c1ccccc1 (stereo not given) | 98.4 µM (inactive) | > 100 µM (inactive) | 72.6 µM (inactive) | > 47.5 µM (inactive) | > 84.5 µM (inactive) | 71.9 µM (inactive) | > 76.7 µM (inactive) | 72.1 µM (inactive) | 98.4 µM (inactive) | > 100 µM (inactive) | > 94.8 µM (inactive) | > 100 µM (inactive) | > 87.9 µM (inactive) | 90.2 µM (inactive) | 72.1 µM (inactive) | > 61.9 µM (inactive) | > 95.7 µM (inactive) | > 100 µM (inactive) | > 93.3 µM (inactive) | > 100 µM (inactive)
O=C1NC(c2ccccc2)C1N(Cc1ccccc1)Cc1ccccc1 (stereo not given) | > 100 µM (inactive) | > 100 µM (inactive) | > 100 µM (inactive) | 25.5 µM (inactive) | > 100 µM (inactive) | > 100 µM (inactive) | > 100 µM (inactive) | > 100 µM (inactive) | > 100 µM (inactive) | > 100 µM (inactive) | > 100 µM (inactive) | > 100 µM (inactive) | > 100 µM (inactive) | > 100 µM (inactive) | > 100 µM (inactive) | > 100 µM (inactive) | > 100 µM (inactive) | 74.1 µM (inactive) | > 100 µM (inactive) | > 100 µM (inactive)
